Measured values from US11851410B2, “Sensors for detection of negatively charged phosphate-containing membranes and membrane components” (THE GOVERNING COUNCIL OF THE UNIVERSITY OF TORONTO, priority 2017, dated 2023).

Columns and labels:
[1] = test system: negatively charged vesicles (PA, PS, PG, CL); experiment: Vesicle fluorescence intensity experiments, all negatively charged vesicles; type: binding
Description: (§1) Small Unilamellar Vesicles (SUVs) were prepared by the extrusion method. Appropriate amounts of lipid in the desired proportions were weighed out to create 10 mM liposome suspensions. The lipids were then dissolved in a minimum amount of chloroform and vortexed to ensure thorough mixing. The excess solvent was then dried off under a gentle stream of nitrogen and allowed to dry overnight in a vacuum dessicator to remove any remaining traces of solvent. The resulting lipid film was then hydrated with 2 mL of HEPES buffer (50 mM HEPES, pH 7.5) for 1 h. The sample was then subjected to five cycles of freeze-thaw-vortex, cycling between liquid nitrogen and a 60° C. water bath. The resulting suspension of multilamellar vesicles (MLVs) was then extruded 25 times through a 0.1 μm polycarbonate membrane installed in a mini-extruder (Avanti Polar Lipids, Alabaster, AL) to form SUV.
10 mM stock solutions of vesicles were diluted separately to 400 μM and 80 μM in pH 7.5, 50 mM HEPES buffer. […] The sensors were dissolved to a concentration of 50 μM (from 800 μM stock solutions in 100% DMSO) in 50 mM HEPES, pH 7.5, 10% DMSO buffer. […] Fluorescence intensities measured were used to calculate the following parameters: ΔFIexc, ΔΔFIexc, ΔFImon, ΔΔFImon, ΔΔFIexc/mon and ΔΔΔFI. The following equations were used for the calculations: […]
Of these, PC and PE represented the zwitterionic vesicles; PS (−1), PA (−1), PG (−1) and CL (−2) represented the negatively charged vesicles.
(§2) The fluorescence enhancement of the excimer (ΔFIexc) species in the presence of vesicles was calculated using equation 1, which is defined as the ratio of the emission intensities of the sensor-vesicle sample and the sensor alone.

[2] = test system: POPA (PA) negatively charged vesicles; experiment: Serial dilution vesicle fluorescence intensity experiments, PA vesicles; type: binding; details: for ΔΔFI: PA vesicles, sensor 25 μM (PSVue™380 1 μM), 50 mM HEPES, 5% DMSO, pH 7.5
Text: (§3) The following equations were used for the calculations: […]

[3] = test system: E. coli K-12 BW25113 cells; details: 40 μM sensor; 10^7-10^8 CFU/mL
Description: E. coli K-12 BW25113 cells were grown overnight in M9 minimal media and then harvested the following morning. Cells were then washed (spun at 5000 rpm for 10 min/wash) three times in buffer (50 mM HEPES, 75 mM NaCl, 1% BSA, 0.4% DMSO, pH 7.5). Cell concentrations were then determined using OD600 and cell samples were diluted to the appropriate concentrations.
Samples were run at the Flow Cytometry Facility, Medical Sciences Building, University of Toronto, on a BD LSR Fortessa X20 using the UV laser (emission: 450/50 nm) with low flow rate (15 uL sample/min) for 2 min.
Sample run using UV laser (BD LSR Fortessa X20, emission: 450/50 nm) in 50 mM HEPES, 75 mM NaCl, 1% BSA, 0.4% DMSO, pH 7.5. […] Sample run using UV laser (BD LSR Fortessa X20, emission: 450/50 nm) in 50 mM HEPES, 75 mM NaCl, 1% BSA, 0.4% DMSO, pH 7.5. […] Sample run using UV laser (BD LSR Fortessa X20, emission: 450/50 nm) in 50 mM HEPES, 75 mM NaCl, 1% BSA, 0.4% DMSO, pH 7.5. […] Sample run using UV laser (BD LSR Fortessa X20, emission: 450/50 nm) in 50 mM HEPES, 75 mM NaCl, 1% BSA, 0.4% DMSO, pH 7.5. […] Sample run using UV laser (BD LSR Fortessa X20, emission: 450/50 nm) in 50 mM HEPES, 75 mM NaCl, 1% BSA, 0.4% DMSO, pH 7.5.

[4] = test system: TOCL (CL) negatively charged vesicles; experiment: Serial dilution vesicle fluorescence intensity experiments, CL vesicles; type: binding; design: ΔΔFI: unit not given here; details: sensor 25 μM (PSVue™380 1 μM), 50 mM HEPES, 5% DMSO, pH 7.5
Text: as §3

[5] = test system: Gram-positive bacteria (B. subtilis, B. megaterium, M. luteus, S. epidermidis); details: sensor 10 μM; λex/em 350/476 nm
Description: Bacteria samples were titrated from 10^8-10^10 cells/mL in a large-volume 12 well plate. Bacteria samples were added to black 384-well plates in triplicate.

[6] = test system: E. coli K-12 BW25113 cells; experiment: Proof-of-concept E. coli titration (fluorometry); type: cell-based; details: sensor 10 μM; 50 mM HEPES, 75 mM NaCl, 1% BSA, 0.4% DMSO, pH 7.5
[7] = test system: DOPS (PS) negatively charged vesicles; experiment: Serial dilution vesicle fluorescence intensity experiments, PS vesicles; type: binding; design: ΔΔFI: unit not given here; details: for ΔΔFI: sensor 25 μM (PSVue™380 1 μM), 50 mM HEPES, 5% DMSO, pH 7.5
Text: as §3
It is estimated that a mammalian cell membrane is composed of 10% PS, with the majority located on the inner leaflet in the healthy state. However, during the early stages of apoptosis, this asymmetry is lost and PS becomes symmetrically distributed resulting in ˜5% of PS externalized to the outer leaflet. To address if compounds of this application could potentially be used for the detection of the PS externalization event during apoptosis, the exemplary sensors were screened against PC vesicles containing biologically-relevant levels of PS ([…]; assuming that approximately half of the lipid head groups will be exposed to the interior of the vesicle). The resulting ΔΔFI for vesicle concentrations up to 40 μM are presented in FIG. 7 and Table 1 (ΔΔFI for vesicle concentrations up to 200 μM is presented in FIG. 4).

[8] = test system: POPE (PE) zwitterionic vesicles; experiment: Serial dilution vesicle fluorescence intensity experiments, PE vesicles; type: binding; details: sensor 25 μM (PSVue™380 1 μM), 50 mM HEPES, 5% DMSO, pH 7.5
Text: as §3

[9] = test system: DOPS (PS) negatively charged vesicles; experiment: Serial dilution vesicle fluorescence intensity experiments, PS vesicles; type: binding; design: ΔΔFI: unit not given here; details: for ΔΔFI: sensor 25 μM (PSVue™380 1 μM), 50 mM HEPES, 5% DMSO, pH 7.5; remark: listed apart in the source
[10] = test system: POPG (PG) negatively charged vesicles; experiment: Serial dilution vesicle fluorescence intensity experiments, PG vesicles; type: binding; details: sensor 25 μM (PSVue™380 1 μM), 50 mM HEPES, 5% DMSO, pH 7.5
Text: as §3

[11] = test system: zwitterionic vesicles (PC, PE); experiment: Vesicle fluorescence intensity experiments, zwitterionic vesicles; type: binding; details: sensor 25 μM; vesicles up to 200 μM; λex/em 350/476 nm
Description: as §1
10 mM stock solutions of vesicles were diluted separately to 400 μM and 80 μM in pH 7.5, 50 mM HEPES buffer. […] Fluorescence intensities measured were used to calculate the following parameters: ΔFIexc, ΔΔFIexc, ΔFImon, ΔΔFImon, ΔΔFIexc/mon and ΔΔΔFI. […]
as §2

[12] = test system: camptothecin treated MOLM-13 cells; experiment: Apoptosis detection by flow cytometry; type: cell-based; details: camptothecin 10 μM, 7 hrs; I-3 50 μM, PSVue™380 90.9 μM
Description: MOLM-13 cells were cultured in Roswell Park Memorial Institute (RPMI)-1640 Medium supplemented with 10% FCS and 1% antibiotic/antimycotic (Gibco, cat. 15240062).
MOLM-13 cells were cultured to a density of 5.0×10^5 cells/mL in regular media and transferred to 6-well tissue culture treated plates (1.0×10^6 cells/well). Treated Cells. Camptothecin (100 μL of 210 μM camptothecin in media) was added to a final concentration of 10 μM (1% DMSO final). Untreated Cells. DMSO Vehicle (100 μL DMSO in media) was added (1% DMSO final). All cells were then incubated at 37° C. for 7 hrs. […] Cell samples were then treated simultaneously with either 1) exemplary compound I-3 (in HEPES buffer, final concentration of 50 μM), and propidium iodide (0.02 μg/μL) or 2) PSVue™380 (in HEPES buffer, final concentration of 90.9 μM as previously reported^39) and propidium iodide (0.02 μg/μL). Samples were then incubated for 15 min away from light at 37° C. and were then analyzed by flow cytometry (CytoFLEX S, BeckmanCoulter) using the near UV laser (exc: 375 nm, emi: 450/45 nm) and blue laser (exc: 488 nm, emi: 585/42 nm). Gates were set off of single stain samples.

[13] = test system: WT and mutant E. coli strains; experiment: Bacteria mutant strain knockout fluorimetry, E. coli; type: cell-based; details: sensor 10 μM; 10^8 CFUs/mL
Text: (§4) Fluorescence intensities were used to calculate the excimer emission in response to bacterial strains. Measurements were averaged over two triplicates.

PA vesicles = experiment: Zinc metalation fluorescence experiments; type: binding
Description: Vesicle fluorescence intensity experiments were performed in the absence or presence of zinc(II) (trifluoromethanesulfonate salt). Unmetallated PSVue™380 (PSVue™380*) was also included for reference.
All glassware was treated with 0.1 M HCl overnight, rinsed three times with MilliQ water, and oven dried. […] The sensor-zinc solutions were then combined with PA vesicles, prepared as described above, incubated as described above and the fluorescence emission intensity was then measured as described above.
In an effort to eliminate this possibility, all glassware was acid-treated and all buffers were chelex-treated to remove any metals, and the screens were repeated with PA vesicles. For these experiments, original non-normalized FIexc values were analyzed.

[14] = test system: WT and mutant B. subtilis strains; experiment: Bacteria mutant strain knockout fluorimetry, B. subtilis; type: cell-based; details: sensor 10 μM; 10^8 CFUs/mL
Text: as §4

[15] = 33% CL vesicles, 20 μM vesicles
[16] = CL vesicles (50%), 5 μM vesicles
[17] = CL vesicles (50%), 20 μM vesicles
[18] = 25% PS vesicles, 20 μM vesicles
[19] = 75% PS vesicles, 20 μM vesicles
[20] = PS vesicles (50%), 5 μM vesicles
[21] = PS vesicles (50%), 20 μM vesicles

| Compound | ΔΔFI ([2]; 5 μM vesicles) | ΔΔFI ([2]; 20 μM vesicles) | ΔΔFI ([4]; 33% CL vesicles, 5 μM vesicles) | ΔΔFI [4, 15] | ΔΔFI [4, 16] | ΔΔFI [4, 17] | detection of Gram-positive bacteria with a fluorometer in bulk solution [5] | ΔΔFI ([7]; 5% PS vesicles, 5 μM vesicles) | ΔΔFI ([7]; 5% PS vesicles, 20 μM vesicles) | ΔΔFI ([7]; 25% PS vesicles, 5 μM vesicles) | ΔΔFI [7, 18] | ΔΔFI ([8]; 5 μM vesicles) | ΔΔFI ([8]; 20 μM vesicles) | ΔΔFI ([9]; 75% PS vesicles, 5 μM vesicles) | ΔΔFI [9, 19] | ΔΔFI [9, 20] | ΔΔFI [9, 21] | ΔΔFI ([10]; 5 μM vesicles) | ΔΔFI ([10]; 20 μM vesicles) | further results |
| --- | --- | --- | --- | --- | --- | --- | --- | --- | --- | --- | --- | --- | --- | --- | --- | --- | --- | --- | --- | --- |
| c1cc2ccc3ccc(CN4CCNCCNCCNCC4)c4ccc(c1)c2c34 [I-1] | 2.9 | 9.5 | 2.8 | 6.6 | 3.3 | 10.6 | can detect Gram-positive bacteria | 1.3 | 2.2 | 1.5 | 2.9 | 1 | 1 | 3.3 | 9.4 | 2.6 | 6.6 | 2.6 | 5.4 | linear response, vesicle concentration range ([1]; 25 μM sensor): 2 to 40 µM; ΔFIexc for all negatively charged vesicles ([1]; sensor 25 μM, vesicles up to 200 μM, λex/em 350/476 nm): ≥ 5; linear response, upper vesicle concentration for PA ([2]; 25 μM sensor): 50 µM; ΔFI with PA vesicles ([2]; 50 μM PA vesicle concentration, sensor 25 μM): 20; detection of bacteria using a flow cytometer [3]: suitable for the detection of bacteria; sensing of increasing amounts of E. coli (ΔFI, ΔΔFI) [6]: capable of sensing increasing amounts of bacteria; ΔFIexc for zwitterionic vesicles [11]: ~1 |
| c1cc2ccc3ccc(CN4CCCNCCNCCCNCC4)c4ccc(c1)c2c34 [I-3] | 7.7 | 23.2 | 2.4 | 6 | 4.1 | 10.2 | can detect Gram-positive bacteria | 1.8 | 3.5 | 2.2 | 5.3 | 1 | 1 | 6.5 | 15.6 | 3.5 | 9.8 | 2.4 | 6.2 | sensing PA compared to PSVue™380 ([2]; Table 1 comparison): superior; ΔΔFI for PA vesicles (FIG. 4) ([2]; sensor 25 μM, vesicles 0-200 μM): ~25; detection of PC vesicles containing 5 and 25% PS ([7]; 5 and 25% PS, corresponding to 2.5 and 12.5% of PS exposed to solution): efficiently detected; sensitivity compared to PSVue™380, 5 μM PS vesicles ([9]; 5 μM PS vesicles): comparable; detection of early apoptotic cells (propidium iodide co-stain) [12]: detects a population of cells, undetected by the dead cell stain propidium iodide |
| c1cc2ccc3ccc(CCCCN4CCCNCCNCCCNCC4)c4ccc(c1)c2c34 [II-4] |  |  |  |  |  |  |  |  |  |  |  |  |  |  |  |  |  |  |  | fluorescence fold of mutant E. coli strains compared to WT [13]: general decrease in fluorescence fold intensity; FIexc response to increasing PA vesicle concentrations, unmetallated (PA vesicles; acid-treated glassware, chelex-treated buffers, non-normalized FIexc): comparable responses; ability to detect PA vesicles in the absence of Zn^2+ (ΔFI) (PA vesicles; unmetallated sensors, PA vesicles 0-200 μM): retained their ability to detect PA; fluorescence fold of mutant B. subtilis strains compared to WT [14]: no changes |
